The results in this text go back to patent US20230033360A1, “COMPOUNDS AS CD73 INHIBITORS” (BioArdis LLC, priority 2019, published 2023).

This assay addresses T1, Recombinant Human 5′-Nucleotidase (CD73) (Homo sapiens, UniProt P21589).
T1 construct: CHO derived CD73 (Trp27-Lys547), with a C-terminal 6-His tag; 6-His (C); purchased R&D 5795-EN; host or cells: CHO
T1 sequence (P21589 27-547): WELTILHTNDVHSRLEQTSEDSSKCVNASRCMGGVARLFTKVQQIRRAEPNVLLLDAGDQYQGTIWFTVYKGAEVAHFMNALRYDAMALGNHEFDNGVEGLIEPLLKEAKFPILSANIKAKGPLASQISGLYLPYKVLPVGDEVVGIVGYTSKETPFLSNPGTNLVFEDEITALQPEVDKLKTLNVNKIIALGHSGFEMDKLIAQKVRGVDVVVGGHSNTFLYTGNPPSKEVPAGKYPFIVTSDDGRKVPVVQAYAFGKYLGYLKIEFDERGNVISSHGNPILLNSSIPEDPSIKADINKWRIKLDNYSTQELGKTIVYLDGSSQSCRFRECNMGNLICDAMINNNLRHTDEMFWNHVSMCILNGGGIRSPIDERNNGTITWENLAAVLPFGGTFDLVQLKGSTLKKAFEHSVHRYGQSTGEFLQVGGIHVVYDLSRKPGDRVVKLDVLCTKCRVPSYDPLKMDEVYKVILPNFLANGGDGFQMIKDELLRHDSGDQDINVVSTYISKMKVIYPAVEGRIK
The experiment in a line: CD73 Enzyme Assay (PiColorLock inorganic phosphate detection, AMP substrate). In kind it is biochemical. Conditions: human CD73 0.5 nM, AMP 30 μM, 20 min at 37° C., absorbance 635 nm; read-out: Potency (IC50). An excerpt:
Soluble recombinant CD73 catalyzes the conversion of adenosine monophosphate (AMP) to adenosine and inorganic phosphate. The phosphate detection reagent, PiColorLock™ (Innova Bioscience, Cat #303-0125) is based on the change in absorbance of the dye malachite green in the presence of inorganic phosphate (Pi) and this property can be exploited to measure any enzyme that generates Pi. Recombinant Human 5′-Nucleotidase (CD73) (R&D #5795-EN, CHO derived CD73 (Trp27-Lys547), with a C-terminal 6-His tag) was used in the enzymatic assay. This assay, run in a 384-well plate format (Corning® NBS™ 384 well plates, Cat #3640), is a generic method for measuring inorganic phosphate. The basic assay procedure involves two steps: 1) Enzyme reaction: The CD73 enzyme (R&D #5795-EN) is incubated in the presence or absence of compounds. AMP (sigma, cat #01930) is added to start the […] reaction. 2) Detection step: Gold mix is added to the assay system, then stabilizers are added. After incubation the absorbance of the solution is read at OD 635 nm. The recorded OD signal is proportional to the enzyme activity.
Briefly, 25 μl human CD73 (0.5 nM final concentration) in the enzymatic buffer solutions (20 mM Tris, 25 mM NaCl, 1 mM MgCl2, pH 7.5, 0.005% Tween-20) were mixed with various concentrations of the test compound (dissolved in 100% DMSO). These solutions were incubated for 15 min at 25° C., and subsequently 25 μl AMP (30 μM final concentration) was added to start the reaction. The final reaction mixture of enzyme-substrate-compound was incubated for 20 min at 37° C. Meanwhile ‘Gold mix’ was prepared shortly before use by adding 1/100 vol. of accelerator to the PiColorLock™ Gold reagent. 12 μL/well of the ‘Gold mix’ was added to assay plate containing 50 μL enzyme reaction buffer and incubated at 25° C. for 5 min. 5 μL/well stabilizer was added to the assay plate and incubated at 25° C. for 30 min. The absorbance of the well solutions was measured at 635 nm on a Spark 10M instrument (TECAN).
The percent (%) inhibition at each concentration of a compound was calculated relative to the […] value in the Max and Min control wells contained within each assay plate. The Max control wells contained enzyme and substrate as 0% inhibition, and the Min control wells only contained substrate without enzyme as 100% inhibition. The concentrations and percent inhibition values for a test compound are plotted and the concentration of the compound required to achieve 50% inhibition (IC50) was determined with a four-parameter logistic dose response equation.
One may read the IC50 as the concentration needed to halve the response being measured. With `O=P(O)(O)CP(=O)(O)OC[C@H]1O[C@@H](c2csc3c(NC4CCCC4)nc(Cl)nc23)[C@H](O)[C@@H]1O` [Example S10, (((((2R,3S,4R,5S)-5-(2-chloro-4-(cyclopentylamino)thieno[3,2-d]pyrimidin-7-yl)-3,4-dihydroxytetrahydrofuran-2-yl)methoxy)(hydroxy)phosphoryl)methyl)phosphonic acid], the IC50 was less than 1 nM. With `O=P(O)(O)CP(=O)(O)OC[C@H]1OC(c2cnc3c(N4CCCC[C@H]4c4ccccc4)cc(Cl)nn23)[C@H](O)[C@@H]1O` (stereo partly drawn) [Example S27, (((((2R,3S,4R)-5-(6-chloro-8-((S)-2-phenylpiperidin-1-yl)imidazo[1,2-b]pyridazin-3-yl)-3,4-dihydroxytetrahydrofuran-2-yl)methoxy)(hydroxy)phosphoryl)methyl)phosphonic acid], the IC50 fell in the range of 1 to 9.9 nM. Then `O=P(O)(O)CP(=O)(O)OC[C@H]1O[C@@H](c2ncc3c(N4CCCC4)cc(Cl)nn23)[C@H](O)[C@@H]1O` [Example S38, [({[(2R,3S,4R,5S)-5-[2-chloro-4-(pyrrolidin-1-yl)imidazo[1,5-b]pyridazin-7-yl]-3,4-dihydroxyoxolan-2-yl]methoxy}(hydroxy)phosphoryl)methyl]phosphonic acid], with 1 to 9.9 nM; and `O=P(O)(O)CP(=O)(O)OC[C@H]1O[C@@H](c2csc3c(N4CC5CCCC5C4)nc(Cl)nc23)[C@@H](F)[C@@H]1O` (stereo partly drawn) [Example S44, [({[(2R,3R,4S,5S)-5-(2-chloro-4-{hexahydro-1H-cyclopenta[c]pyrrol-2-yl}thieno[3,2-d]pyrimidin-7-yl)-4-fluoro-3-hydroxyoxolan-2-yl]methoxy}(hydroxy)phosphoryl)methyl]phosphonic acid], with 10 to 99 nM.

As to `O=P(O)(O)CP(=O)(O)OC[C@H]1OC(c2cnc3c(N4CCC(F)(F)C4)cc(Cl)nn23)[C@@H](F)[C@@H]1O` (stereo partly drawn) [Example S22, (((((2R,3R,4S)-5-(6-chloro-8-(3,3-difluoropyrrolidin-1-yl)imidazo[1,2-b]pyridazin-3-yl)-4-fluoro-3-hydroxytetrahydrofuran-2-yl)methoxy)(hydroxy)phosphoryl)methyl)phosphonic acid], the IC50 was in the range of 10 to 99 nM.

For the compound `O=P(O)(O)CP(=O)(O)OC[C@H]1O[C@@H](c2cnc3c(NC45CCC(CC4)C5)cc(Cl)nn23)[C@H](O)[C@@H]1O` [Example S33, [({[(2R,3S,4R,5S)-5-(8-{bicyclo[2.2.1]heptan-1-ylamino}-6-chloroimidazo[1,2-b]pyridazin-3-yl)-3,4-dihydroxyoxolan-2-yl]methoxy}(hydroxy)phosphoryl)methyl]phosphonic acid], the IC50 was 1 to 9.9 nM. With `O=P(O)(O)CP(=O)(O)OC[C@H]1OC(c2cnc3c(N4CC5CCCC5C4)cc(Cl)nn23)[C@@H](F)[C@@H]1O` (stereo partly drawn) [Example S24, (((((2R,3R,4S)-5-(6-chloro-8-(hexahydrocyclopenta[c]pyrrol-2 (1H)-yl)imidazo[1,2-b]pyridazin-3-yl)-4-fluoro-3-hydroxytetrahydrofuran-2-yl)methoxy)(hydroxy)phosphoryl)methyl)phosphonic acid] the figure was 1 to 9.9 nM; with `CN(c1cc(Cl)nn2c([C@@H]3O[C@H](COP(=O)(O)CP(=O)(O)O)[C@@H](O)[C@H]3O)cnc12)C1CCCC1` [Example S32], 1 to 9.9 nM; with `O=P(O)(O)CP(=O)(O)OC[C@H]1O[C@@H](c2cnc3c(N4CCC(F)(F)C4)cc(Cl)nn23)[C@H](O)[C@@H]1O` [Example S35, (((((2R,3S,4R,5S)-5-(6-chloro-8-(3,3-difluoropyrrolidin-1-yl)imidazo[1,2-b]pyridazin-3-yl)-3,4-dihydroxytetrahydrofuran-2-yl)methoxy)(hydroxy)phosphoryl)methyl)phosphonic acid], 1 to 9.9 nM. Then `O=P(O)(O)CP(=O)(O)OC[C@H]1OC(c2cnc3c(N4CCc5ccccc5C4)cc(Cl)nn23)[C@H](O)[C@@H]1O` (stereo partly drawn) [Example S28, (((((2R,3S,4R)-5-(6-chloro-8-(3,4-dihydroisoquinolin-2 (1H)-yl)imidazo[1,2-b]pyridazin-3-yl)-3,4-dihydroxytetrahydrofuran-2-yl)methoxy)(hydroxy)phosphoryl)methyl)phosphonic acid], with 1 to 9.9 nM; and `O=P(O)(O)CP(=O)(O)OC[C@H]1O[C@@H](c2ncc3c(NC4CCCC4)cc(Cl)nn23)[C@H](O)[C@@H]1O` [Example S7, (((((2R,3S,4R,5S)-5-(2-chloro-4-(cyclopentylamino)imidazo[1,5-b]pyridazin-7-yl)-3,4-dihydroxytetrahydrofuran-2-yl)methoxy)(hydroxy)phosphoryl)methyl)phosphonic acid], with 1 to 9.9 nM; and `O=P(O)(O)CP(=O)(O)OC[C@H]1O[C@@H](c2cnc3c(NC4CC5CCC4C5)cc(Cl)nn23)[C@H](O)[C@@H]1O` (stereo partly drawn) [Example S6, (((((2R,3S,4R,5S)-5-(8-(bicyclo[2.2.1]heptan-2-ylamino)-6-chloroimidazo[1,2-b]pyridazin-3-yl)-3,4-dihydroxytetrahydrofuran-2-yl)methoxy)(hydroxy)phosphoryl)methyl)phosphonic acid], with 1 to 9.9 nM.

In the case of `O=P(O)(O)CP(=O)(O)OC[C@H]1OC(c2cnc3c(NC4CCOC4)cc(Cl)nn23)[C@H](O)[C@@H]1O` (stereo partly drawn) [Example S12, (((((2R,3S,4R)-5-(6-chloro-8-((tetrahydrofuran-3-yl)amino)imidazo[1,2-b]pyridazin-3-yl)-3,4-dihydroxytetrahydrofuran-2-yl)methoxy)(hydroxy)phosphoryl)methyl)phosphonic acid], the IC50 lay within 1 to 9.9 nM.

For `O=P(O)(O)CP(=O)(O)OC[C@H]1O[C@@H](c2cnc3c(NC4CCCCC4)cc(Cl)nn23)[C@H](O)[C@@H]1O` [Example S5, (((((2R,3S,4R,5S)-5-(6-chloro-8-(cyclohexylamino)imidazo[1,2-b]pyridazin-3-yl)-3,4-dihydroxytetrahydrofuran-2-yl)methoxy)(hydroxy)phosphoryl)methyl)phosphonic acid], the IC50 is 1 to 9.9 nM.

As for `O=P(O)(O)CP(=O)(O)OC[C@H]1OC(c2cnc3c(N4CCCC4)cc(Cl)nn23)[C@@H](F)[C@@H]1O` (stereo partly drawn) [Example S21, (((((2R,3R,4S)-5-(6-chloro-8-(pyrrolidin-1-yl)imidazo[1,2-b]pyridazin-3-yl)-4-fluoro-3-hydroxytetrahydrofuran-2-yl)methoxy)(hydroxy)phosphoryl)methyl)phosphonic acid], the IC50 was in the range of 10 to 99 nM. Then `O=P(O)(O)CP(=O)(O)OC[C@H]1O[C@@H](c2csc3c(N4CCCC4)cc(Cl)nc23)[C@H](O)[C@@H]1O` [Example S42, [({[(2R,3S,4R,5S)-5-[5-chloro-7-(pyrrolidin-1-yl)thieno[3,2-b]pyridin-3-yl]-3,4-dihydroxyoxolan-2-yl]methoxy}(hydroxy)phosphoryl)methyl]phosphonic acid], with 1 to 9.9 nM; and `O=P(O)(O)CP(=O)(O)OC[C@H]1OC(c2cnc3c(N4CCC(F)(F)CC4)cc(Cl)nn23)[C@H](O)[C@@H]1O` (stereo partly drawn) [Example S29, (((((2R,3S,4R)-5-(6-chloro-8-(4,4-difluoropiperidin-1-yl)imidazo[1,2-b]pyridazin-3-yl)-3,4-dihydroxytetrahydrofuran-2-yl)methoxy)(hydroxy)phosphoryl)methyl)phosphonic acid], with 1 to 9.9 nM.
